Experimental data published in the OligoGym collection.
Bases are written 5' to 3'; sugars and linkages follow in the same order, as letters with counts (s phosphorothioate, o phosphodiester; PS: all linkages phosphorothioate). The collection does not say whether C is 5-methylated. l = locked nucleic acid (LNA); d = 2'-deoxy (DNA)

molecular target: Tau; assay: rat primary cortical neurons, FLIPR, 25 uM ASO

| Sequence | calcium oscillation score |
| --- | --- |
| AGGCATGATTGTGGGC (sugars l3 d10 l3, PS) | 0 % of control |
| AACTTCTAATTTAGTC (sugars l4 d8 l4, PS) | 81.9 % of control |
| CATGATTGTGGGCTT (sugars l3 d9 l3, PS) | 0 % of control |
| CACCTCCTGGTTTATGATGG (sugars l3 d14 l3, PS) | 0 % of control |
| TTCACCCCAAGACACAA (sugars l3 d11 l3, PS) | 59 % of control |
| CTTGAAGTCAAGCTTCTCAG (sugars l3 d14 l3, PS) | 33.2 % of control |
| ATGAGCACTAACTCTAAGTA (sugars l3 d14 l3, PS) | 4.76 % of control |
| CAGGGACCCAATCTTCGACT (sugars l3 d14 l3, PS) | 9.04 % of control |
| TTAACTCAAATCAATTCTCA (sugars l4 d12 l4, PS) | 62 % of control |
| CACCCTTACACATAGC (sugars l3 d11 l2, PS) | 60.6 % of control |
| AATAAGAAAGGAACGC (sugars l5 d7 l4, PS) | 121 % of control |
| ACTCAGTTCTCTATAAT (sugars l4 d9 l4, PS) | 64.1 % of control |
| CGCTTCCAGTCCCGTC (sugars l3 d10 l3, PS) | 15.7 % of control |
| TAATGAGCCACACTTGGAGG (sugars l3 d14 l3, PS) | 0 % of control |
| TTACACCACACTGTCG (sugars l3 d10 l3, PS) | 32.1 % of control |
| ATAGTCACTCTGGTGA (sugars l3 d10 l3, PS) | 85.7 % of control |
| ATTCCCAAATTCCTCATAAT (sugars l4 d14 l2, PS) | 58.6 % of control |
| CCGAACTGCGAGGAGCAGCT (sugars l3 d14 l3, PS) | 38.9 % of control |
| TATTTCCAAATTCACTTTTA (sugars lllddldddddddddlldll, PS) | 127 % of control |
| AACCACTCTAACATCTTA (sugars l4 d11 l3, PS) | 86.8 % of control |
| CAGCTAGTGGTGCCACCTGA (sugars l3 d14 l3, PS) | 16.5 % of control |
| CCAATTGTCACATTAA (sugars l4 d8 l4, PS) | 63.1 % of control |
| ATTTCTCTAATTGTCCA (sugars l4 d10 l3, PS) | 46.8 % of control |
| TCTTCCTTTGTAATTCCT (sugars l3 d13 l2, PS) | 57.9 % of control |
| ACCAATTAACCGAACT (sugars l3 d10 l3, PS) | 159 % of control |
| GAGAACTGGTTAGCCC (sugars l3 d10 l3, PS) | 2.3 % of control |

| Sequence | calcium oscillation score |
| --- | --- |
| GGTGATATTGTCCAGG (sugars l3 d10 l3, PS) | 18.5 % of control |
| CTTCTATTACTTGCAAT (sugars l4 d9 l4, PS) | 69 % of control |
| CTTTATTTCCAAATTCAC (sugars l4 d10 l1 d1 l2, PS) | 5.59 % of control |
| CTTTTAATTAAATTTCTCCC (sugars l2 d15 l3, PS) | 87.6 % of control |
| TGTCGATGCTGCCG (sugars l3 d8 l3, PS) | 52.2 % of control |
| ATATTGTCCAGGGACCCAAT (sugars l3 d14 l3, PS) | 19.9 % of control |
| AACACCTTTTAATTCATT (sugars l4 d10 l4, PS) | 74.8 % of control |
| ATTTATTAATTCATAAATGA (sugars l3 d14 l3, PS) | 46.3 % of control |
| AACCACTCTTATTCTTTAA (sugars l4 d11 l4, PS) | 77.1 % of control |
| CTTTATTTCCAAATTCACTT (sugars l2 d1 l2 d11 l4, PS) | 0 % of control |
| TGGATATAGTTAAGGC (sugars l4 d8 l4, PS) | 117 % of control |
| GACTTGTACACGATCTCCGC (sugars l3 d14 l3, PS) | 66.8 % of control |
| TCTACATTTTTGTCTCA (sugars l3 d11 l3, PS) | 47.1 % of control |
| TTCTTAGAGGACTGCAACGC (sugars l3 d14 l3, PS) | 23.9 % of control |
| CTTCCATCACTTCGAACTCC (sugars l3 d14 l3, PS) | 27.1 % of control |
| CGGAAGGTCAGCTTGTGGGT (sugars l3 d14 l3, PS) | 14.5 % of control |
| TCCAAAGCATCAAATCC (sugars l3 d11 l3, PS) | 85.5 % of control |
| AATTAACCGAACTGCG (sugars l3 d10 l3, PS) | 186 % of control |
| TCTCAGTGGAGCCGATCTTG (sugars l3 d14 l3, PS) | 0 % of control |
| AAAATATCCTTACCATCC (sugars l4 d10 l4, PS) | 70.2 % of control |
| CCAATCAATTATATTATAT (sugars l4 d11 l4, PS) | 60.8 % of control |
| CTTCAGTCCTAATCCT (sugars l3 d10 l3, PS) | 95.8 % of control |
| TTATTTCCAAATTCACTTTT (sugars l1 d17 l2, PS) | 166 % of control |
| CACCTTACCACTTTCA (sugars l3 d10 l3, PS) | 115 % of control |
| ACCATCCAAGTCAATGCCTG (sugars l3 d14 l3, PS) | 4.03 % of control |
| ATTTCCAAATTCACTTTTAC (sugars llldlddddddddddldlll, PS) | 135 % of control |

| Sequence | calcium oscillation score |
| --- | --- |
| AGAACTTCTAGTTATACAGT (sugars l3 d14 l3, PS) | 35.7 % of control |
| TGGATATAGTTAAGGC (sugars l2 d12 l2, PS) | 115 % of control |
| TTTTCTCAATGTAACCT (sugars l4 d9 l4, PS) | 80.5 % of control |
| AAGTCCCGAGCCAAAG (sugars l3 d10 l3, PS) | 91.8 % of control |
| TCTCAGCTCTTCCATAAGCA (sugars l3 d14 l3, PS) | 82.6 % of control |
| CTTGGGTGGAGTACGG (sugars l3 d10 l3, PS) | 0 % of control |
| CCCACATTTGCAAACCAC (sugars l2 d14 l2, PS) | 50.5 % of control |
| CAGATTTTACTTCCACCT (sugars l2 d14 l2, PS) | 44.7 % of control |
| ATTTTACTACTCTCTTT (sugars l4 d9 l4, PS) | 82 % of control |
| CCATCAATTTCCCTGT (sugars l2 d10 l4, PS) | 56.3 % of control |
| ATGCAGGAGTTGTAAG (sugars l3 d10 l3, PS) | 40.8 % of control |
| CTCAGATTTTACTTCCAC (sugars l4 d12 l2, PS) | 43.1 % of control |
| CTCCTAATTTTGCACTC (sugars l3 d11 l3, PS) | 46.7 % of control |
| CACTCTGATACTATTAT (sugars l4 d9 l4, PS) | 69 % of control |
| TTGAAGTCCCGAGCC (sugars l3 d9 l3, PS) | 0 % of control |
| ATTTCCAAATTCACTTTTAC (sugars llldldddddddddldldll, PS) | 123 % of control |
| CGTGGTCTGTCTTG (sugars l3 d8 l3, PS) | 0 % of control |
| AACTCTAAGTAGACCCTGGC (sugars l3 d14 l3, PS) | 14.3 % of control |
| TTCCTAATTCCCAAATTCC (sugars l3 d14 l2, PS) | 62.1 % of control |
| TGAACAGGAGAGCCATTTCC (sugars l3 d14 l3, PS) | 7.14 % of control |
| ACTTAAATTTATTTTCTTTT (sugars l4 d12 l4, PS) | 55.8 % of control |
| TTTTCAAACACACCTTCATT (sugars l2 d14 l4, PS) | 98.6 % of control |
| TTTTTCTTGTTCTAACCC (sugars l4 d12 l2, PS) | 56.1 % of control |
| ATGTTGCCTAATGAGCCACA (sugars l3 d14 l3, PS) | 31.6 % of control |
| ATTTCCAAATTCACTT (sugars l3 d10 l3, PS) | 111 % of control |
